Laboratory results as given in publication PMC11995216, “End-to-End Backbone Cyclization Enhances Passive Permeability of bRo5 Oligomeric Depsipeptides with Nonlinear Size Dependence” (ACS Medicinal Chemistry Letters, 2025).
Values joined by “and” are separate entries in the source; they are usually repeats but may differ in a detail not shown here. Equal entries are not always repeated. Where two headings read alike, the source gives them in different places.

Key:
[1] = system: PAMPA; conditions: calculated using Supplement Equation 1, UV detection
[2] = system: PAMPA
[3] = system: PAMPA; conditions: UV detection
[4] = system: PAMPA; remark: listed apart in the source
[5] = system: PAMPA; remark: listed apart in the source
[6] = PAMPA, permeability assay across an artificial membrane; conditions: for Diffusion (%): PAMPA percent diffusion; for Acceptor Concentration, Ave: after incubation; for Δ % diffusion: increase: difference between percent diffusion of macrocycle vs linear counterpart
[7] = calculated using Supplement Equation 1, UV detection
[8] = UV detection
[9] = PAMPA, (acceptor + donor)/total analyte, C0 500 uM
[10] = PAMPA, Papp, ratio-based method, mean ± SD, C0 500 uM, UV detection
[11] = PAMPA, Recovery (%), PAMPA, (acceptor + donor)/total analyte, C0 500 uM

In the case of `CCCCC[C@@H]1OC(=O)[C@@H](C)N(C)C(=O)[C@H](CCCCC)OC(=O)[C@@H](C)N(C)C(=O)[C@H](CCCCC)OC(=O)[C@@H](C)N(C)C1=O` [Compound C1.3, ent-verticilide B1], the %T ([1]; Well 1 / %T, Well 1) is reported as 0.44% (2×) and 0.41%, the %T ([1]; Well 2 / %T, Well 2) is reported as 0.51% and 0.43% (2×) and the %T ([1]; Well 3 / %T, Well 3) is reported as 0.54% and 0.51% and 0.49%. For the same compound, the %T ([1]; Well 4 / %T, Well 4) was 0.48% (2×) and 0.45%, the %T ([1]; Well 5 / %T, Well 5) was 0.48% (2×) and 0.47% and the Papp ([2]; Papp (x 10^-6 cm/s) – ELSD Detection / [row 1], ELSD Detection) was 4.16 ×10⁻⁶ cm/s. It also gave a Papp ([2]; Papp (x 10^-6 cm/s) – ELSD Detection / [row 2], ELSD Detection) of 4.41 ×10⁻⁶ cm/s, a Papp ([2]; Papp (x 10^-6 cm/s) – ELSD Detection / [row 3], ELSD Detection) of 3.96 ×10⁻⁶ cm/s and a Papp ([2]; Papp (x 10^-6 cm/s) – ELSD Detection / [row 4], ELSD Detection) of 4.13 ×10⁻⁶ cm/s. It also gave a Papp ([2]; Papp (x 10^-6 cm/s) – ELSD Detection / [row 5], ELSD Detection) of 4.45 ×10⁻⁶ cm/s, a Papp ([2]; Papp (x 10^-6 cm/s) – ELSD Detection / [row 6], ELSD Detection) of 4.03 ×10⁻⁶ cm/s and a Papp ([2]; Papp (x 10^-6 cm/s) – ELSD Detection / [row 9], ELSD Detection) of 4.31 ×10⁻⁶ cm/s. The Papp ([2]; Papp (x 10^-6 cm/s) – ELSD Detection / [row 10], ELSD Detection) was 4.39 ×10⁻⁶ cm/s, the Papp ([2]; Papp (x 10^-6 cm/s) – ELSD Detection / [row 11], ELSD Detection) was 3.96 ×10⁻⁶ cm/s and the Papp ([2]; Papp (x 10^-6 cm/s) – ELSD Detection / [row 12], ELSD Detection) was 4.4 ×10⁻⁶ cm/s. It also gave a Papp ([2]; Papp (x 10^-6 cm/s) – ELSD Detection / [row 13], ELSD Detection) of 5.05 ×10⁻⁶ cm/s, a Papp ([2]; Papp (x 10^-6 cm/s) – ELSD Detection / [row 14], ELSD Detection) of 4.44 ×10⁻⁶ cm/s and a Papp ([2]; Papp (x 10^-6 cm/s) – ELSD Detection / [row 15], ELSD Detection) of 4.01 ×10⁻⁶ cm/s. The Papp ([2]; Papp (x 10^-6 cm/s) – UV Detection / [row 1], UV Detection) was 3.32 ×10⁻⁶ cm/s, the Papp ([2]; Papp (x 10^-6 cm/s) – UV Detection / [row 2], UV Detection) was 4.01 ×10⁻⁶ cm/s and the Papp ([2]; Papp (x 10^-6 cm/s) – UV Detection / [row 3], UV Detection) was 4.37 ×10⁻⁶ cm/s. The Papp ([2]; Papp (x 10^-6 cm/s) – UV Detection / [row 4], UV Detection) was 3.67 ×10⁻⁶ cm/s, the Papp ([2]; Papp (x 10^-6 cm/s) – UV Detection / [row 5], UV Detection) was 3.75 ×10⁻⁶ cm/s and the Papp ([2]; Papp (x 10^-6 cm/s) – UV Detection / [row 7], UV Detection) was 3.19 ×10⁻⁶ cm/s. It also gave a Papp ([2]; Papp (x 10^-6 cm/s) – UV Detection / [row 8], UV Detection) of 4 ×10⁻⁶ cm/s, a Papp ([2]; Papp (x 10^-6 cm/s) – UV Detection / [row 9], UV Detection) of 3.36 ×10⁻⁶ cm/s and a Papp ([2]; Papp (x 10^-6 cm/s) – UV Detection / [row 10], UV Detection) of 3.7 ×10⁻⁶ cm/s. For the same compound, the Papp ([2]; Papp (x 10^-6 cm/s) – UV Detection / [row 11], UV Detection) was 3.24 ×10⁻⁶ cm/s, the Papp ([2]; Papp (x 10^-6 cm/s) – UV Detection / [row 12], UV Detection) was 3.17 ×10⁻⁶ cm/s and the Papp ([2]; Papp (x 10^-6 cm/s) – UV Detection / [row 13], UV Detection) was 3.78 ×10⁻⁶ cm/s. The Papp ([2]; Papp (x 10^-6 cm/s) – UV Detection / [row 14], UV Detection) was 3.81 ×10⁻⁶ cm/s, the Papp ([2]; Papp (x 10^-6 cm/s) – UV Detection / [row 15], UV Detection) was 3.57 ×10⁻⁶ cm/s and the % recovery ([3]; Well 1 / %R, Well 1) was 97% and 94% and 93%. The % recovery ([3]; Well 2 / %R, Well 2) was 94% and 92%, the % recovery ([3]; Well 3 / %R, Well 3) was 88% and 89% and 94% and the % recovery ([3]; Well 4 / %R, Well 4) was 94% and 89% and 90%. For the same compound, the % recovery ([3]; Well 5 / %R, Well 5) was 87%, the Acceptor Concentration ([4]; Acceptor Concentration (uM) – ELSD Detection / [row 1]) was 102 µM and the Acceptor Concentration ([4]; Acceptor Concentration (uM) – ELSD Detection / [row 2]) was 106 µM. For the same compound, the Acceptor Concentration ([4]; Acceptor Concentration (uM) – ELSD Detection / [row 3]) was 96 µM, the Acceptor Concentration ([4]; Acceptor Concentration (uM) – ELSD Detection / [row 4]) was 101 µM and the Acceptor Concentration ([4]; Acceptor Concentration (uM) – ELSD Detection / [row 5]) was 106 µM. It also gave an Acceptor Concentration ([4]; Acceptor Concentration (uM) – ELSD Detection / [row 6]) of 98.1 µM, an Acceptor Concentration ([4]; Acceptor Concentration (uM) – ELSD Detection / [row 7]) of 103 µM and an Acceptor Concentration ([4]; Acceptor Concentration (uM) – ELSD Detection / [row 8]) of 90.6 µM. The Acceptor Concentration ([4]; Acceptor Concentration (uM) – ELSD Detection / [row 9]) was 103 µM, the Acceptor Concentration ([4]; Acceptor Concentration (uM) – ELSD Detection / [row 10]) was 101 µM and the Acceptor Concentration ([4]; Acceptor Concentration (uM) – ELSD Detection / [row 11]) was 96.3 µM. The Acceptor Concentration ([4]; Acceptor Concentration (uM) – ELSD Detection / [row 12]) was 107 µM, the Acceptor Concentration ([4]; Acceptor Concentration (uM) – ELSD Detection / [row 13]) was 112 µM and the Acceptor Concentration ([4]; Acceptor Concentration (uM) – ELSD Detection / [row 14]) was 102 µM. For the same compound, the Acceptor Concentration ([4]; Acceptor Concentration (uM) – ELSD Detection / [row 15]) was 94.9 µM, the Acceptor Concentration ([4]; Acceptor Concentration (uM) – UV Detection / [row 1]) was 89.6 µM and the Acceptor Concentration ([4]; Acceptor Concentration (uM) – UV Detection / [row 2]) was 100 µM. For the same compound, the Acceptor Concentration ([4]; Acceptor Concentration (uM) – UV Detection / [row 3]) was 101 µM, the Acceptor Concentration ([4]; Acceptor Concentration (uM) – UV Detection / [row 4]) was 93.8 µM and the Acceptor Concentration ([4]; Acceptor Concentration (uM) – UV Detection / [row 5]) was 88.6 µM. The Acceptor Concentration ([4]; Acceptor Concentration (uM) – UV Detection / [row 6]) was 79.9 µM, the Acceptor Concentration ([4]; Acceptor Concentration (uM) – UV Detection / [row 7]) was 82.2 µM and the Acceptor Concentration ([4]; Acceptor Concentration (uM) – UV Detection / [row 8]) was 95.3 µM. For the same compound, the Acceptor Concentration ([4]; Acceptor Concentration (uM) – UV Detection / [row 9]) was 83.1 µM, the Acceptor Concentration ([4]; Acceptor Concentration (uM) – UV Detection / [row 10]) was 88.1 µM and the Acceptor Concentration ([4]; Acceptor Concentration (uM) – UV Detection / [row 11]) was 84 µM. For the same compound, the Acceptor Concentration ([4]; Acceptor Concentration (uM) – UV Detection / [row 12]) was 81.4 µM, the Acceptor Concentration ([4]; Acceptor Concentration (uM) – UV Detection / [row 13]) was 95.3 µM and the Acceptor Concentration ([4]; Acceptor Concentration (uM) – UV Detection / [row 14]) was 92.2 µM. For the same compound, the Acceptor Concentration ([4]; Acceptor Concentration (uM) – UV Detection / [row 15]) was 85.4 µM, the donor concentration after incubation ([5]; Well 1 / [donor]) was 396 µM and 390 µM and 380 µM and the donor concentration after incubation ([5]; Well 2 / [donor]) was 370 µM and 376 µM and 374 µM. The donor concentration after incubation ([5]; Well 3 / [donor]) was 341 µM and 351 µM and 372 µM, the donor concentration after incubation ([5]; Well 4 / [donor]) was 377 µM and 362 µM and 356 µM and the donor concentration after incubation ([5]; Well 5 / [donor]) was 347 µM and 349 µM and 351 µM. For the same compound, the “Diffusion (%)” value ([6]; C0 500 uM) was 18.04% and 18.0 ± 1.5%, the “Recovery (%)” value [6, 9] was 91% and the Papp at 500 uM ([6]; PAMPA, Papp, Ave, ELSD detection, C0 500 uM) was 4.24 ×10⁻⁶ cm/s. For the same compound, the Papp at 500 uM [6, 10] was 3.64 ± 0.42 ×10⁻⁶ cm/s, the recovery at 500 uM [6, 11] was 91.2% and the “Acceptor Concentration, Ave” value ([6]; PAMPA, ELSD detection, C0 500 uM) was 101.2 µM. The “Acceptor Concentration, Ave” value ([6]; PAMPA, UV detection, C0 500 uM) was 89.4 µM and the Δ % diffusion [6] was “↑3%”.
In the case of `CCCCC[C@H](OC(=O)[C@@H](C)N(C)C(=O)[C@H](CCCCC)OC(=O)[C@@H](C)N(C)C(=O)[C@H](CCCCC)OC(=O)[C@@H](C)N(C)C(=O)[C@H](CCCCC)OC(=O)[C@@H](C)N(C)C(=O)[C@H](CCCCC)OC(=O)[C@@H](C)N(C)C(=O)[C@H](CCCCC)OC(=O)[C@@H](C)N(C)C(=O)OC(C)(C)C)C(=O)OCc1ccccc1` [Compound L1.6], the %T ([7]; Well 1 / %T, Well 1) is reported as 0.32% and 0.44%, the %T ([7]; Well 2 / %T, Well 2) is reported as 0.37% and 0.33% and the %T ([7]; Well 3 / %T, Well 3) is reported as 0.44% and 0.4%. It also gave a %T ([7]; Well 4 / %T, Well 4) of 0.41%, a %T ([7]; Well 5 / %T, Well 5) of 0.37% and a Papp ([2]; Papp (x 10^-6 cm/s) / experiment 1, UV detection) of 0.4 ×10⁻⁶ cm/s. For the same compound, the Papp ([2]; Papp (x 10^-6 cm/s) / experiment 2, UV detection) was 0.44 ×10⁻⁶ cm/s, the Papp ([2]; Papp (x 10^-6 cm/s) / experiment 3, UV detection) was 0.41 ×10⁻⁶ cm/s and the Papp ([2]; Papp (x 10^-6 cm/s) / experiment 5, UV detection) was 0.44 ×10⁻⁶ cm/s. It also gave a Papp ([2]; Papp (x 10^-6 cm/s) / experiment 6, UV detection) of 0.43 ×10⁻⁶ cm/s, a Papp ([2]; Papp (x 10^-6 cm/s) / experiment 7, UV detection) of 0.41 ×10⁻⁶ cm/s and a Papp ([2]; Papp (x 10^-6 cm/s) / experiment 8, UV detection) of 0.43 ×10⁻⁶ cm/s. The Papp ([2]; Papp (x 10^-6 cm/s) / experiment 10, UV detection) was 0.4 ×10⁻⁶ cm/s, the % recovery ([8]; Well 1 / %R, Well 1) was 87% and 82% and the % recovery ([8]; Well 2 / %R, Well 2) was 80% and 87%. For the same compound, the % recovery ([8]; Well 3 / %R, Well 3) was 85% and 82%, the % recovery ([8]; Well 4 / %R, Well 4) was 83% and the % recovery ([8]; Well 5 / %R, Well 5) was 81% and 88%. The donor concentration after incubation (Well 1 / [donor]) was 435 µM and 410 µM, the donor concentration after incubation (Well 2 / [donor]) was 398 µM and 434 µM and the donor concentration after incubation (Well 3 / [donor]) was 424 µM and 410 µM. The donor concentration after incubation (Well 4 / [donor]) was 416 µM and 415 µM, the donor concentration after incubation (Well 5 / [donor]) was 403 µM and 438 µM and the “Diffusion (%)” value ([6]; C0 500 uM) was under 5%. For the same compound, the “Recovery (%)” value [6, 9] was 84%, the Papp [6, 10] was 0.42 ×10⁻⁶ cm/s and the recovery [6, 11] was 83.7%. For the same compound, the “Acceptor Concentration, Ave” value ([6]; PAMPA, UV detection, C0 500 uM) was under 25 µM and the Δ % diffusion [6] was “↑2%”.
